Source: ChEMBL document CHEMBL1157450, “Potent and selective small-molecule human urotensin-II antagonists with improved pharmacokinetic profiles” (Bioorg Med Chem Lett, 2008)
pEC50, pIC50, pKi: −log10 of the molar value. Activity calls are given as the source filed them. The rule behind the calls is not given here.

Key:
[1] = Volume of distribution at steady state in rat at 2 mg/kg, iv and 4 mg/kg, po; assay type: ADME, organism-based; conditions: in vivo, read-out: Vdss
[2] = Oral bioavailability in rat at 4 mg/kg; assay type: ADME, organism-based; conditions: in vivo
[3] = target: T1, Urotensin-2 receptor (Homo sapiens, UniProt Q9UKP6); assay: Binding affinity to human urotensin-2 receptor
T1 sequence (Q9UKP6 whole entry): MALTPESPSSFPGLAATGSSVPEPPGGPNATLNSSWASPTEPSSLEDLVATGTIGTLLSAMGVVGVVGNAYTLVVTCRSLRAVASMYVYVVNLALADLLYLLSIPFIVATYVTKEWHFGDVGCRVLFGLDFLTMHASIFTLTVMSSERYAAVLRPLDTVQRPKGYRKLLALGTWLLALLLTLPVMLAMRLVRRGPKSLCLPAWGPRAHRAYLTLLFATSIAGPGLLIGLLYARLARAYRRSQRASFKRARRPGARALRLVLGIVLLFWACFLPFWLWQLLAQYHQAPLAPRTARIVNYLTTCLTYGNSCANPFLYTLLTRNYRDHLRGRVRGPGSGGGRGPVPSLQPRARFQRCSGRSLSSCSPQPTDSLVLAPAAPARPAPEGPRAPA

[4] = target: Kappa-type opioid receptor (Homo sapiens, UniProt P41145); assay: Agonist activity at kappa opioid receptor; assay type: functional
[5] = (§1) Binding affinity to batrachotoxinin-sensitive rat brain sodium channel
[6] = target: Cytochrome P450 2D6 (Homo sapiens, UniProt P10635); assay: Inhibition of CYP2D6; assay type: ADME
[7] = target: Cytochrome P450 3A4 (Homo sapiens, UniProt P08684); assay: Inhibition of CYP3A4; assay type: ADME
[8] = Cmax in rat at 2 mg/kg, iv and 4 mg/kg, po; assay type: ADME, organism-based; conditions: in vivo
[9] = Half life in rat at 2 mg/kg, iv and 4 mg/kg, po; assay type: ADME, organism-based; conditions: in vivo
[10] = Clearance in rat at 2 mg/kg, iv and 4 mg/kg, po; assay type: ADME, organism-based; conditions: in vivo
[11] = organism: Rattus norvegicus; assay: as §1
[12] = system: Aorta; assay: Inhibition of contraction in isolated rat aorta; assay type: functional

Sequence of Cytochrome P450 3A4 (P08684 whole entry): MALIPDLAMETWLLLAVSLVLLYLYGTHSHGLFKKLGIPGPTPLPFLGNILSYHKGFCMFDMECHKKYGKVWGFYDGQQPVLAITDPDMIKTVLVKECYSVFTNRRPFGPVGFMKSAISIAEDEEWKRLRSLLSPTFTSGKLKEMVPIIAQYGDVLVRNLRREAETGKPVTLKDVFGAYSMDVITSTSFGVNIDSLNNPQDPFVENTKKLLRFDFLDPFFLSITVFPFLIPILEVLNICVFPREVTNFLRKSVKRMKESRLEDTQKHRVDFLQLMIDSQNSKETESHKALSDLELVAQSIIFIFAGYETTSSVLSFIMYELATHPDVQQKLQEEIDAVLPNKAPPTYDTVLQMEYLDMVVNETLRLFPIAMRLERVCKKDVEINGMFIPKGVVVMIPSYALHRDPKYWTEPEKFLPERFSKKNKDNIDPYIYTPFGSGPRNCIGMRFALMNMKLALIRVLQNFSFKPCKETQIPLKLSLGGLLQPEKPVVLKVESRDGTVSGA
Sequence of Kappa-type opioid receptor (P41145 whole entry): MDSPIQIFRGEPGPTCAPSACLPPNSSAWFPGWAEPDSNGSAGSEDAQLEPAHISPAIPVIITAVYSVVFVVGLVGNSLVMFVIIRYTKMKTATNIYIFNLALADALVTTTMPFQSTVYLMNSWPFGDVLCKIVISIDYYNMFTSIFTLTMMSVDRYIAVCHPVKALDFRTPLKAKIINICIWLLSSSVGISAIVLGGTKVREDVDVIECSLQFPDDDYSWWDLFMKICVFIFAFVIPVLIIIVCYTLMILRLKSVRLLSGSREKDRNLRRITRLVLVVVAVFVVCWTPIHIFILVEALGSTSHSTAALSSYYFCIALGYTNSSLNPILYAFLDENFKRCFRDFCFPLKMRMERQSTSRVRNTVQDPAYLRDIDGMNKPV
Sequence of Cytochrome P450 2D6 (P10635 whole entry): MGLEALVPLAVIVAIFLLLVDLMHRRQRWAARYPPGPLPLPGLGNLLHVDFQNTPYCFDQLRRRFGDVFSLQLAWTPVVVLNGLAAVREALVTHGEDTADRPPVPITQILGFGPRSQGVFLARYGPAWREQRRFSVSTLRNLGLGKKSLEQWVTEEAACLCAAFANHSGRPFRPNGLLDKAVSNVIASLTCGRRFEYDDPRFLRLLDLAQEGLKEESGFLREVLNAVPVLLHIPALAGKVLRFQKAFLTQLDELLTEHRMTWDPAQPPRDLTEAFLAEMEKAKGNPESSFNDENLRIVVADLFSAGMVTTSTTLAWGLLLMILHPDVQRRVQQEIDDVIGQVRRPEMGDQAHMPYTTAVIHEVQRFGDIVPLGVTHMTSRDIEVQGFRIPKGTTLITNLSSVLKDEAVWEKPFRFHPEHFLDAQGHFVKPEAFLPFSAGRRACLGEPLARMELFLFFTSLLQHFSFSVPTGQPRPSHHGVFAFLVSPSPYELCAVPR

For CN(C(=O)CN1C(=O)COc2cc(Cl)c(Cl)cc21)[C@@H](CN1CCOCC1)c1ccc(-c2ccccc2)cc1, the Vd [1] was 11 L/kg, the bioavailability [2] was 43% and the pKi [3] was 7.80. It also gave a pEC50 [4] of 6.10, a pKi [5] of 5.11 and a pIC50 [6] of 4.48. It also gave a pIC50 [7] of 5.04, a Cmax [8] of 200 ng/mL and a half-life [9] of 2.2 h. It also gave a clearance [10] of 120 mL/min/kg.

CN(C(=O)CN1C(=O)COc2cc(Cl)c(Cl)cc21)[C@H](CN1CCOCC1)c1ccc(-c2ccccc2)cc1 showed a Vd [1] of 19 L/kg, a bioavailability [2] of 17% and a pKi [3] of 6.20. For the same molecule, the pEC50 [4] was 7.40, the pKi [5] was 5.03 and the pIC50 [6] was 4.48. The pIC50 [7] was 5.38, the Cmax [8] was 230 ng/mL and the half-life [9] was 2.6 h. The clearance [10] was 130 mL/min/kg.

For CN(CC(=O)N(C)C(CN1CCCC1)c1ccc(-c2ccccc2)cc1)c1ccc(Cl)c(Cl)c1 (centres undefined), the pKi [3] was 7.70, the pEC50 [4] was 7.80 and the pKi [5] was 5.92. The pIC50 [6] was 5.23 and the pIC50 [7] was 5.31.

For CC(=O)Nc1ccc(-c2ccc(C(CN3CCOCC3)N(C)C(=O)CN3C(=O)COc4cc(C)c(C)cc43)cc2)cc1 (centres undefined), the Vd [1] was 2.8 L/kg, the bioavailability [2] was 83% and the pKi [3] was 8.52. It also gave a pEC50 [4] of 6.10, a pKi [5] of 4.52 and a pIC50 [6] of 4.52. The pIC50 [7] was 5.19, the Cmax [8] was 600 ng/mL and the half-life [9] was 1.7 h. It also gave a clearance [10] of 94 mL/min/kg.

In the case of CN(CC(=O)N(C)C(CN1CCCC1)c1ccccc1)c1ccc(Cl)c(Cl)c1 (racemic), the pKi [3] was 7.82, the pEC50 [4] was 9.70 and the Activity [11] was “inactive”. It also gave a pIC50 [6] of 6.80 and a pIC50 [7] of 5.48.

In the case of CNC(=O)c1cccc(-c2ccc(C(CN3CCOCC3)N(C)C(=O)Cn3c(=O)cnc4cc(Cl)c(Cl)cc43)cc2)c1 (centres undefined), the Vd [1] was 2 L/kg, the bioavailability [2] was 29% and the pKi [3] was 8.40. The pEC50 [4] was 5.70, the pKi [5] was 4.52 and the pIC50 [6] was 4.48. It also gave a pIC50 [7] of 5.30, a Cmax [8] of 1100 ng/mL and a half-life [9] of 1.5 h. For the same molecule, the clearance [10] was 36 mL/min/kg.

In the case of CNC(=O)c1cccc(-c2ccc(C(CN3CCOCC3)N(C)C(=O)Cn3c(=O)cnc4cc(C)c(C)cc43)cc2)c1 (centres undefined), the Vd [1] was 1.7 L/kg, the bioavailability [2] was 39% and the pKi [3] was 8.22. For the same molecule, the pEC50 [4] was 5.40, the pKi [5] was 4.52 and the pIC50 [6] was 4.48. The pIC50 [7] was 5.05, the half-life [9] was 1 h and the clearance [10] was 60 mL/min/kg.

Molecule CN(C(=O)CN(CC#N)c1ccc(Cl)c(Cl)c1)C(CN1CCCC1)c1ccc(-c2cccc(C(N)=O)c2)cc1 (centres undefined) has a Vd [1] of 20 L/kg, a bioavailability [2] of 36% and a pKi [3] of 9.52. For the same molecule, the pEC50 [4] was 7.49, the pKi [5] was 4.66 and the pIC50 [6] was 5.46. For the same molecule, the pIC50 [7] was 5.66, the Cmax [8] was 340 ng/mL and the half-life [9] was 3.4 h. For the same molecule, the clearance [10] was 100 mL/min/kg.

CN(CC(=O)N1CCC[C@H](c2ccccc2)[C@@H]1CN1CCCC1)c1ccc(Cl)c(Cl)c1 showed a pKi [3] of 8.22 and a pEC50 [4] of 5.20.

Molecule COCCN(CC(=O)N(C)C(CN1CCCC1)c1ccc(-c2ccc(C(N)=O)cc2)cc1)c1ccc(Cl)c(Cl)c1 (centres undefined) has a pKi [3] of 8.52, a pEC50 [4] of 7.00 and a pKi [5] of 4.77. For the same molecule, the pIC50 [6] was 5.21 and the pIC50 [7] was 5.59.

For CN(CC(=O)N1CCCC(c2ccccc2)C1CN1CCCC1)c1ccc(Cl)c(Cl)c1 (racemic), the pKi [5] was 5.60.

For CN(CC(=O)N(C)C(CN1CCOCC1)c1ccc(-c2ccccc2)cc1)c1ccc(Cl)c(Cl)c1 (centres undefined), the pKi [3] was 6.20, the pEC50 [4] was 5.80 and the pKi [5] was less than 3.52. It also gave a pIC50 [6] of 4.80 and a pIC50 [7] of 5.68.

CN(CC(=O)N(C)[C@@H](CN1CCCC1)c1ccccc1)c1ccc(Cl)c(Cl)c1 showed a pKi [3] of 7.89, a pEC50 [4] of 8.40 and a pKi [5] of 5.70.

Molecule CN(CC(=O)N1CCC[C@@H](c2ccccc2)[C@H]1CN1CCCC1)c1ccc(Cl)c(Cl)c1 has a pEC50 [4] of 5.70.

For CN(C(=O)CN1C(=O)COc2cc(Cl)c(Cl)cc21)C(CN1CCOCC1)c1ccc(-c2ccccc2)cc1 (racemic), the Vd [1] was 23 L/kg, the pKi [3] was 7.89 and the pEC50 [4] was 6.49. The pKi [5] was 4.95, the pIC50 [6] was 4.48 and the pIC50 [7] was 5.34. It also gave a Cmax [8] of 160 ng/mL, a half-life [9] of 2.4 h and a clearance [10] of 150 mL/min/kg.

For COc1cccc(-c2ccc(C(CN3CCOCC3)N(C)C(=O)CN3C(=O)COc4cc(Cl)c(Cl)cc43)cc2)c1 (centres undefined), the Vd [1] was 20 L/kg, the bioavailability [2] was 30% and the Kb [12] was 0.021 µM. It also gave a pKi [3] of 8.30, a pEC50 [4] of 6.80 and a pKi [5] of 4.66. The pIC50 [6] was 4.77, the pIC50 [7] was 6.00 and the Cmax [8] was 290 ng/mL. For the same molecule, the half-life [9] was 3.4 h and the clearance [10] was 140 mL/min/kg.

With CN(CC(=O)N(C)[C@H](CN1CCCC1)c1ccccc1)c1ccc(Cl)c(Cl)c1 the pKi [3] was 5.60 and the pEC50 [4] was 10.00.

For CN(C(=O)Cc1ccc(Cl)c(Cl)c1)[C@H](CN1CCCC1)c1ccccc1 [ICI-199,441], the pKi [3] was 5.40.
